Assays:
[1] = test system: antibodies in sera from SARS patients (sera 1a, 1b, 2, 6, 37, 62, London, SARS-yellow, SARS-green); assay type: binding, human; set-up: Binding of serum 6 to linear peptides of protein X1 of SARS-CoV Urbani / Binding of serum 37 to linear peptides of protein X1 of SARS-CoV Urbani / Binding of serum 6 to looped/cyclic peptide (PEPSCAN-ELISA) / Binding of serum 37 to looped/cyclic peptide (PEPSCAN-ELISA) / Binding of serum 37 to looped/cyclic peptides of protein X1 of SARS-CoV Urbani / Binding of serum 6 to linear peptides of protein X2 / Binding of serum 37 to linear peptides of protein X2 / Binding of serum 37 to looped/cyclic peptides of protein X2 of SARS-CoV Urbani / Binding of serum 6 to linear peptides of protein M of SARS-CoV Urbani / Binding of serum 37 to linear peptides of protein M of SARS-CoV Urbani / Binding of serum 6 to looped/cyclic peptides of protein M of SARS-CoV Urbani / Binding of serum 37 to looped/cyclic peptides of protein M of SARS-CoV Urbani / Binding of serum 6 to linear peptides of protein X3 of SARS-CoV Urbani / Binding of serum 37 to linear peptides of protein X3 of SARS-CoV Urbani / Binding of serum 37 to looped/cyclic peptides of protein X3 of SARS-CoV Urbani / Binding of serum 6 to linear peptides of protein X4 of SARS-CoV Urbani / Binding of serum 37 to linear peptides of protein X4 of SARS-CoV Urbani / Binding of serum 37 to looped/cyclic peptides of protein X4 of SARS-CoV Urbani / Binding of serum 6 to linear peptides of protein X5 of SARS-CoV Urbani / Binding of serum 37 to linear peptides of protein X5 of SARS-CoV Urbani / Binding of serum 37 to looped/cyclic peptides of protein X5 of SARS-CoV Urbani / Binding of serum 6 to linear peptides of protein N of SARS-CoV Urbani / Binding of serum 37 to linear peptides of protein N of SARS-CoV Urbani / Binding of serum 6 to linear peptide (PEPSCAN-ELISA) / Binding of serum 1a to looped/cyclic peptides of protein N of SARS-CoV Urbani / Binding of serum 1b to looped/cyclic peptides of protein N of SARS-CoV Urbani / Binding of serum 2 to looped/cyclic peptides of protein N of SARS-CoV Urbani / Binding of serum 6 to looped/cyclic peptides of protein N of SARS-CoV Urbani / Binding of serum 37 to looped/cyclic peptides of protein N of SARS-CoV Urbani / Binding of serum 62 to looped/cyclic peptides of protein N of SARS-CoV Urbani / Binding of serum London to looped/cyclic peptides of protein N of SARS-CoV Urbani / Binding of serum SARS-green to looped/cyclic peptides of protein N of SARS-CoV Urbani: unit not given here
[2] = test system: control sera (pooled serum of ten healthy LUMC hospital workers; commercial negative donor pooled serum from the Dutch bloodbank); assay type: binding, human; set-up: Binding of Control serum LUMC to linear peptides / Binding of Control serum Blood-bank to linear peptides / Binding of Control serum LUMC to looped peptides / Binding of Control Serum Blood-Bank to Looped peptides / Binding of Control serum LUMC to linear peptides of the protein M of SARS-CoV Urbani / Binding of Control serum Blood-bank to linear peptides of the protein M of SARS-CoV Urbani / Binding of Control serum LUMC to looped peptides of the protein M of SARS-CoV Urbani / Binding of Control Serum Blood-Bank to Looped peptides of the protein M of SARS-CoV Urbani: unit not given here
[3] = test system: rabbit serum obtained by immunizing a rabbit with the SARS-CoV strain Frankfurt 1; assay type: binding; set-up: Binding of a rabbit serum to linear peptides / Binding of a rabbit serum to looped peptides / Rabbit serum linear peptides / Rabbit serum looped peptides / Binding of a rabbit serum to linear peptides of protein N of SARS-CoV Urbani (Rabbit serum linear peptides) / Binding of a rabbit serum to looped/cyclic peptides of protein N of SARS-CoV Urbani (Rabbit serum looped peptides): unit not given here

ESELVIGAVIIRGHL
Binding of serum 1a to linear peptides of protein M of SARS-CoV Urbani [1]: 0.8
Binding of serum 1a to looped/cyclic peptides of protein M of SARS-CoV Urbani [1]: 0.6
Binding of serum 1b to linear peptides of protein M of SARS-CoV Urbani [1]: 0.6
Binding of serum 1b to looped/cyclic peptides of protein M of SARS-CoV Urbani [1]: 0.5
Binding of serum 2 to linear peptides of protein M of SARS-CoV Urbani [1]: 0.8
Binding of serum 2 to looped/cyclic peptides of protein M of SARS-CoV Urbani [1]: 0.6
Binding of serum 6 to linear peptides of protein M of SARS-CoV Urbani [1]: 0.3
Binding of serum 6 to looped/cyclic peptides of protein M of SARS-CoV Urbani [1]: 0.5
Binding of serum 37 to linear peptides of protein M of SARS-CoV Urbani [1]: 0.9
Binding of serum 37 to looped/cyclic peptides of protein M of SARS-CoV Urbani [1]: 0.5
Binding of serum 62 to linear peptides of protein M of SARS-CoV Urbani [1]: 0.8
Binding of serum 62 to looped/cyclic peptides of protein M of SARS-CoV Urbani [1]: 0.5
Binding of serum London to linear peptides of protein M of SARS-CoV Urbani [1]: 0.3
Binding of serum London to looped/cyclic peptides of protein M of SARS-CoV Urbani [1]: 0.2
Binding of serum SARS-green to linear peptides of protein M of SARS-CoV Urbani [1]: 0.3
Binding of serum SARS-green to looped/cyclic peptides of protein M of SARS-CoV Urbani [1]: 0.2
Binding of serum SARS-yellow to linear peptides of protein M of SARS-CoV Urbani [1]: 0.1
Binding of serum SARS-yellow to looped/cyclic peptides of protein M of SARS-CoV Urbani [1]: 0.4
Binding of Control Serum Blood-Bank to Looped peptides of the protein M of SARS-CoV Urbani [2]: 0.7
Binding of Control serum Blood-bank to linear peptides of the protein M of SARS-CoV Urbani [2]: 0.6
Binding of Control serum LUMC to linear peptides of the protein M of SARS-CoV Urbani [2]: 0.4
Binding of Control serum LUMC to looped peptides of the protein M of SARS-CoV Urbani [2]: 0.5
Rabbit serum linear peptides [3]: 0.4
Rabbit serum looped peptides [3]: 0.1

ESTQITTDTGIENAT
Binding of serum 1a to linear peptides of protein X1 of SARS-CoV Urbani [1]: 0.6
Binding of serum 1a to looped/cyclic peptides of protein X1 of SARS-CoV Urbani [1]: 0.4
Binding of serum 1b to linear peptides of protein X1 of SARS-CoV Urbani [1]: 0.4
Binding of serum 1b to looped/cyclic peptides of protein X1 of SARS-CoV Urbani [1]: 0.2
Binding of serum 2 to linear peptides of protein X1 of SARS-CoV Urbani [1]: 0.3
Binding of serum 2 to looped/cyclic peptides of protein X1 of SARS-CoV Urbani [1]: 0.1
Binding of serum 6 to linear peptides of protein X1 of SARS-CoV Urbani [1]: 0.4
Binding of serum 6 to looped/cyclic peptides of protein X1 of SARS-CoV Urbani [1]: 0.2
Binding of serum 37 to linear peptides of protein X1 of SARS-CoV Urbani [1]: 0.5
Binding of serum 37 to looped/cyclic peptides of protein X1 of SARS-CoV Urbani [1]: 0.3
Binding of serum 62 to linear peptides of protein X1 of SARS-CoV Urbani [1]: 0.5
Binding of serum 62 to looped/cyclic peptides of protein X1 of SARS-CoV Urbani [1]: 0.3
Binding of serum London to linear peptides of protein X1 of SARS-CoV Urbani [1]: 0.2
Binding of serum London to looped/cyclic peptides of protein X1 of SARS-CoV Urbani [1]: 0.2
Binding of serum SARS-green to linear peptides of protein X1 of SARS-CoV Urbani [1]: 0.2
Binding of serum SARS-green to looped/cyclic peptides of protein X1 of SARS-CoV Urbani [1]: 0.1
Binding of serum SARS-yellow to linear peptides of protein X1 of SARS-CoV Urbani [1]: 0.1
Binding of serum SARS-yellow to looped/cyclic peptides of protein X1 of SARS-CoV Urbani [1]: 0.3
Binding of Control Serum Blood-Bank to Looped peptides [2]: 0.4
Binding of Control serum Blood-bank to linear peptides [2]: 0.4
Binding of Control serum LUMC to linear peptides [2]: 0.5
Binding of Control serum LUMC to looped peptides [2]: 0.4
Binding of a rabbit serum to linear peptides [3]: 0.1
Binding of a rabbit serum to looped peptides [3]: 0.5

EVQQELYSPLFLIVA
Binding of serum 1a to linear peptides of protein X4 of SARS-CoV Urbani [1]: 0.7
Binding of serum 1a to looped/cyclic peptides of protein X4 of SARS-CoV Urbani [1]: 0.7
Binding of serum 1b to linear peptides of protein X4 of SARS-CoV Urbani [1]: 0.6
Binding of serum 1b to looped/cyclic peptides of protein X4 of SARS-CoV Urbani [1]: 0.6
Binding of serum 2 to linear peptides of protein X4 of SARS-CoV Urbani [1]: 0.4
Binding of serum 2 to looped/cyclic peptides of protein X4 of SARS-CoV Urbani [1]: 0.6
Binding of serum 6 to linear peptides of protein X4 of SARS-CoV Urbani [1]: 0.9
Binding of serum 6 to looped/cyclic peptides of protein X4 of SARS-CoV Urbani [1]: 0.5
Binding of serum 37 to linear peptides of protein X4 of SARS-CoV Urbani [1]: 0.8
Binding of serum 37 to looped/cyclic peptides of protein X4 of SARS-CoV Urbani [1]: 0.7
Binding of serum 62 to linear peptides of protein X4 of SARS-CoV Urbani [1]: 0.7
Binding of serum 62 to looped/cyclic peptides of protein X4 of SARS-CoV Urbani [1]: 0.6
Binding of serum London to linear peptides of protein X4 of SARS-CoV Urbani [1]: 1.0
Binding of serum London to looped/cyclic peptides of protein X4 of SARS-CoV Urbani [1]: 0.3
Binding of serum SARS-green to linear peptides of protein X4 of SARS-CoV Urbani [1]: 0.8
Binding of serum SARS-green to looped/cyclic peptides of protein X4 of SARS-CoV Urbani [1]: 0.3
Binding of serum SARS-yellow to linear peptides of protein X4 of SARS-CoV Urbani [1]: 0.6
Binding of serum SARS-yellow to looped/cyclic peptides of protein X4 of SARS-CoV Urbani [1]: 0.9
Recognition of the peptide by sera of SARS-CoV infected individuals, and form (linear, looped/cyclic) in which it is recognized [1]: recognized in looped/cyclic form
Binding of Control Serum Blood-Bank to Looped peptides [2]: 0.7
Binding of Control serum Blood-bank to linear peptides [2]: 0.5
Binding of Control serum LUMC to linear peptides [2]: 0.5
Binding of Control serum LUMC to looped peptides [2]: 0.8
Rabbit serum linear peptides [3]: 0.5
Rabbit serum looped peptides [3]: 0.5
